Experimental findings from patent publication US20180194762A1 (Pharmacyclics LLC, priority 2017, published 2018) are described below.

For orientation: IC50 means the concentration needed to halve the response being measured.

Read-outs that look alike come from different tables or passages of the source.

What all share (format): biochemical
The target in assay [1] is T1, Btk (Homo sapiens, UniProt Q06187).
T1 construct: purified from insect cells as a full-length construct containing a N-terminal 6X-His tag; His6 (N); made in house; host or cells: insect cells (Method C)
The experiment in a line: Btk in vitro inhibitory activity (one of Method A TR-FRET, Method B electrophoretic mobility shift, Method C radiometric filter binding). Summed up: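 Method A: TR-FRET with 0.5 nM Btk at [ATP]=Km, EDTA-quenched, 665/615 nm ratio; Ki(app) converted to IC50. Method B: 1 nM full-length His6 human BTK, 1 μM FAM peptide, pH 7.5, mobility-shift product/sum ratio, 12-point 4-parameter fit. Method C: radiometric filter binding, 8 nM His-tagged BTK, 0.2 mg/mL poly-Glu-Tyr.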
In general terms: A gel shift assay detects complexes by their altered migration in electrophoresis.

The target in assay [2] is T2, TEC (Homo sapiens, UniProt P42680).
T2 sequence (P42680 1-631): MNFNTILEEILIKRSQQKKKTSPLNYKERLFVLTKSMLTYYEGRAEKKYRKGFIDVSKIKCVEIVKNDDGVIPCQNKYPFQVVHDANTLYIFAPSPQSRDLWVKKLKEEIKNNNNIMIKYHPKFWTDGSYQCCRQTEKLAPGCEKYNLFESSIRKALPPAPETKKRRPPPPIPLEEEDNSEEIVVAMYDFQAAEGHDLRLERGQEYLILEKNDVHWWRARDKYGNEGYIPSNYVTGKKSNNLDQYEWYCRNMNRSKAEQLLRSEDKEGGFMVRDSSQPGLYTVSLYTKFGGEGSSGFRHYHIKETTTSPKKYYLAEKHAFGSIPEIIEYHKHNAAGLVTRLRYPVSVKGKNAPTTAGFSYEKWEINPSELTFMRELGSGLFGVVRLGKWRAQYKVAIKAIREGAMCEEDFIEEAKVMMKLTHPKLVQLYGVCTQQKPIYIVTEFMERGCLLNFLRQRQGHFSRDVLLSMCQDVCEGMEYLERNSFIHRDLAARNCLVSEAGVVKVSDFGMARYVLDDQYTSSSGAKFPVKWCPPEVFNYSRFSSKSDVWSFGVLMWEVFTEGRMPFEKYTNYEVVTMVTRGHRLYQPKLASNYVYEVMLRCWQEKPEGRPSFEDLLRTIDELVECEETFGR
The assay can be described thus: Inhibition of a panel of kinases (in vitro HotSpot kinase assay, 33P-ATP, 1 μM ATP). The note with it: for IC50: HotSpot kinase assay, 1 μM ATP; for TEC/Btk: ratio of TEC IC50 to Btk IC50 (selectivity). Summed up: (§1)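 Degree of kinase inhibition is determined in vitro using isolated enzymes, a matched substrate and radiolabelled ATP (1 μM).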

For assay [3], the target named is T3, panel of kinases (Homo sapiens, UniProt P51813).
T3 sequence (P51813 1-675): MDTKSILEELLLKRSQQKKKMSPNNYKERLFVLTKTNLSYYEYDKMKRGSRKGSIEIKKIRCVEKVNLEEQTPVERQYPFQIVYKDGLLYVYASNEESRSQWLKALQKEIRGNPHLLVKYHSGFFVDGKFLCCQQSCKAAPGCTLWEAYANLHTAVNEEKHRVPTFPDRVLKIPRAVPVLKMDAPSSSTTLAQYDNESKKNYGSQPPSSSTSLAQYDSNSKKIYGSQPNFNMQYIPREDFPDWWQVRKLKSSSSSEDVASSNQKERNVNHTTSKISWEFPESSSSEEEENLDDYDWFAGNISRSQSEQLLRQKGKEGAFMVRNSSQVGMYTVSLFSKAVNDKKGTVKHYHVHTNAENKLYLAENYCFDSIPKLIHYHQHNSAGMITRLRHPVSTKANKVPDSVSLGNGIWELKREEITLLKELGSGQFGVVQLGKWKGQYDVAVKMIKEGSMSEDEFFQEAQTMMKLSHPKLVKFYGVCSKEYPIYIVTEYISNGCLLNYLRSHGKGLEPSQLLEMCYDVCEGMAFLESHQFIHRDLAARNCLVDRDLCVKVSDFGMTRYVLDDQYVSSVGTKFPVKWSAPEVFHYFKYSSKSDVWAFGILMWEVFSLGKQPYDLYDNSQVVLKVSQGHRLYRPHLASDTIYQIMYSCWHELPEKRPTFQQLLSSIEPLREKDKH
The experiment in a line: Inhibition of a panel of kinases (in vitro HotSpot kinase assay, 33P-ATP, 1 μM ATP), other kinases. The note with it: BMX wild-type, read-out: BMX-WT IC50. The essentials: as §1

The mark [4] stands for this setting: method is one of A, B or C, not stated which, read-out: IC50 values against Btk.
[5] abbreviates: wild-type Btk, read-out: Btk-WT IC50.

T1 sequence (Q06187 whole entry): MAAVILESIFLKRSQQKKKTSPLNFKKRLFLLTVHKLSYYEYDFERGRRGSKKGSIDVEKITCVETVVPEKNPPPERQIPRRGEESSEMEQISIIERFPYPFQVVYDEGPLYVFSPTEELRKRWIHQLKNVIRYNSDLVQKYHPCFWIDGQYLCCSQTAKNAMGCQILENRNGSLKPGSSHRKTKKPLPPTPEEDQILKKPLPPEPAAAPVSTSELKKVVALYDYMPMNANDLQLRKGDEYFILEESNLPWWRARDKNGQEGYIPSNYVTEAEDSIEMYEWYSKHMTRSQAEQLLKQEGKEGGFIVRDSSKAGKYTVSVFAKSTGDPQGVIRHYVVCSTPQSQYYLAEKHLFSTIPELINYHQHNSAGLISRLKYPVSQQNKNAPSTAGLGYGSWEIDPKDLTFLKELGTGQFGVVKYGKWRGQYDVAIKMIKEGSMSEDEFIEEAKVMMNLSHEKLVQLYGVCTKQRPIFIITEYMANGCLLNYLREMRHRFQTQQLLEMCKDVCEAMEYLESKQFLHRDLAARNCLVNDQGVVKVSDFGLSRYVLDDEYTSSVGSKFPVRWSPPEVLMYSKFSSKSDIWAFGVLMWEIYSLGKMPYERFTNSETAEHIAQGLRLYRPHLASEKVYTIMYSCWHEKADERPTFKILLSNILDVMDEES

Take `C=CC(=O)N1CCC(Nc2n[nH]c3nccc(-c4ccc(CNC(=O)c5noc(C(C)(C)C)n5)c(F)c4)c23)CC1` [Example 105, 5-tert-butyl-N-{[2-fluoro-4-(3-{[1-(prop-2-enoyl)piperidin-4-yl]amino}-1H-pyrazolo[3,4-b]pyridin-4-yl)phenyl]methyl}-1,2,4-oxadiazole-3-carboxamide]: the IC50 is less than 10 nM in assay [1] (setting [4]), 0.457 nM in assay [1] (setting [5]), 470 nM in assay [2] and 312 nM in assay [3]. Also, the TEC/Btk in assay [2] was determined as 1028.
Regarding `C[C@@H](NC(=O)c1noc(C(C)(C)C)n1)c1ccc(-c2ccnc3[nH]nc(N[C@@H]4CC[C@H](C)N(C(=O)N(C)C)C4)c23)cc1F` [Example 191, (2S,5R)-5-{[4-(4-{(1R)-1-[(5-tert-butyl-1,2,4-oxadiazole-3-carbonyl)amino]ethyl}-3-fluorophenyl)-1H-pyrazolo[3,4-b]pyridin-3-yl]amino}-N,N,2-trimethylpiperidine-1-carboxamide], the IC50 was determined as 0.329 nM in assay [1] (setting [5]), 340 nM in assay [2] and 310 nM in assay [3]. The TEC/Btk in assay [2] is recorded as 1033.
`C=CC(=O)N1CC[C@@H](Nc2n[nH]c3nccc(-c4ccc([C@H](C)NC(=O)c5noc(C(C)(C)C)n5)c(F)c4)c23)C1` [Example 303, 5-tert-butyl-N-{(1S)-1-[2-fluoro-4-(3-{[(3R)-1-(prop-2-enoyl)pyrrolidin-3-yl]amino}-1H-pyrazolo[3,4-b]pyridin-4-yl)phenyl]ethyl}-1,2,4-oxadiazole-3-carboxamide]: the figures for the IC50 in assay [1] (setting [5]), in assay [2] and in assay [3] were 1.05 nM, 239 nM and 119 nM, respectively.
As for `C=CC(=O)N1CCC(c2n[nH]c3nccc(-c4ccc(CNC(=O)c5noc(C(C)(C)C)n5)c(F)c4)c23)C1` (centres unmarked) [Example 279, 5-tert-butyl-N-[(2-fluoro-4-{3-[1-(prop-2-enoyl)pyrrolidin-3-yl]-1H-pyrazolo[3,4-b]pyridin-4-yl}phenyl)methyl]-1,2,4-oxadiazole-3-carboxamide], the IC50 came out at 0.0922 nM in assay [1] (setting [5]), 14.9 nM in assay [2] and 8.95 nM in assay [3]. Further, the TEC/Btk in assay [2] worked out at 162.
On to `CC(C)(C)n1ccc(C(=O)NCc2ccc(-c3ccnc4[nH]nc(N[C@@H]5CCNC5)c34)cc2F)n1` [Example 64, 1-tert-butyl-N-{[2-fluoro-4-(3-{[(3R)-pyrrolidin-3-yl]amino}-1H-pyrazolo[3,4-b]pyridin-4-yl)phenyl]methyl}-1H-pyrazole-3-carboxamide], for which the IC50 was 167 nM in assay [1] (setting [5]), more than 10000 nM in assay [2] and more than 10000 nM in assay [3]. Also, the TEC/Btk in assay [2] is reported as more than 100.
In the case of `CC(C)(C)c1nnc(C(=O)NCc2ccc(-c3ccnc4[nH]nc(N[C@@H]5CCNC5)c34)cc2F)o1` [Example 77, 5-tert-butyl-N-{[2-fluoro-4-(3-{[(3R)-pyrrolidin-3-yl]amino}-1H-pyrazolo[3,4-b]pyridin-4-yl)phenyl]methyl}-1,3,4-oxadiazole-2-carboxamide], the half-inhibitory concentration (IC50) in assay [1] (setting [5]) is 159 nM; in assay [2] it was more than 10000 nM; in assay [3], more than 10000 nM. Further, the TEC/Btk in assay [2] is on record as more than 100.
`CC(C)(C)c1ccc(C(=O)NCc2ccc(-c3ccnc4[nH]nc(N5CC[C@@H](N)C5)c34)cc2F)cc1` [Example 100, N-[(4-{3-[(3R)-3-aminopyrrolidin-1-yl]-1H-pyrazolo[3,4-b]pyridin-4-yl}-2-fluorophenyl)methyl]-4-tert-butylbenzamide]: the 50% inhibitory concentration (IC50) in assay [1] (setting [5]) came to 13.8 nM; in assay [2], 2970 nM; in assay [3], 1890 nM. In assay [2], the TEC/Btk came out at 215.
The like results for `CC(C)(C)c1ccc2c(c1)CCN(Cc1ccc(-c3ccnc4[nH]nc(N[C@@H]5CCNC5)c34)cc1F)C2=O` [Compound 36, 6-tert-butyl-2-{[2-fluoro-4-(3-{[(3R)-pyrrolidin-3-yl]amino}-1H-pyrazolo[3,4-b]pyridin-4-yl)phenyl]methyl}-1,2,3,4-tetrahydroisoquinolin-1-one] were, in that order, 433 nM, more than 10000 nM, more than 10000 nM and more than 100.
In the case of `C=CC(=O)N1CC[C@@H](Nc2n[nH]c3nccc(-c4ccc(CNC(=O)c5noc(CC)n5)c(F)c4)c23)C1` [Example 84, 5-ethyl-N-{[2-fluoro-4-(3-{[(3R)-1-(prop-2-enoyl)pyrrolidin-3-yl]amino}-1H-pyrazolo[3,4-b]pyridin-4-yl)phenyl]methyl}-1,2,4-oxadiazole-3-carboxamide], the IC50 was less than 10 nM in assay [1] (setting [4]), 7.83 nM in assay [1] (setting [5]), 361 nM in assay [2] and 87 nM in assay [3]. Besides, the TEC/Btk in assay [2] came to 46.
Take `CNC1CCN(c2n[nH]c3nccc(-c4ccc(CN(C)C(=O)c5nc(C(C)(C)C)no5)c(F)c4)c23)C1` (centres unmarked) [Example 337, 3-tert-butyl-N-[(2-fluoro-4-{3-[3-(methylamino)pyrrolidin-1-yl]-1H-pyrazolo[3,4-b]pyridin-4-yl}phenyl)methyl]-N-methyl-1,2,4-oxadiazole-5-carboxamide]: the IC50 in assay [1] (setting [5]) stood at 2.35 nM; in assay [2], 8030 nM; in assay [3], 5200 nM.
For `C[C@H]1CC[C@@H](Nc2n[nH]c3nccc(-c4ccc(CNC(=O)c5noc(C(C)(C)C)n5)c(F)c4)c23)CN1C(=O)N(C)C` [Example 67, (2S,5R)-5-{[4-(4-{[(5-tert-butyl-1,2,4-oxadiazol-3-yl)formamido]methyl}-3-fluorophenyl)-1H-pyrazolo[3,4-b]pyridin-3-yl]amino}-N,N,2-trimethylpiperidine-1-carboxamide], the IC50 in assay [1] (setting [4]) was less than 10 nM; in assay [1] (setting [5]), 0.359 nM; in assay [2], 121 nM; in assay [3], 137 nM. The TEC/Btk in assay [2] is 337.
`CC(C)(C)c1nc(C(=O)NCc2ccc(-c3ccnc4[nH]nc(N[C@H]5CC[C@H](N)CC5)c34)cc2F)no1` [Example 151, 5-tert-butyl-N-{[2-fluoro-4-(3-{[(1r,4r)-4-aminocyclohexyl]amino}-1H-pyrazolo[3,4-b]pyridin-4-yl)phenyl]methyl}-1,2,4-oxadiazole-3-carboxamide]: the IC50 was 21.7 nM in assay [1] (setting [5]), 8270 nM in assay [2] and 8120 nM in assay [3].
On to `C=CC(=O)N1CC[C@@H](Nc2n[nH]c3nccc(-c4cccc(-n5ccc6cc(C7CC7)cc(F)c6c5=O)c4COC(C)=O)c23)C1` [Compound 16, [2-(6-cyclopropyl-8-fluoro-1-oxo-1,2-dihydroisoquinolin-2-yl)-6-(3-{[(3R)-1-(prop-2-enoyl)pyrrolidin-3-yl]amino}-1H-pyrazolo[3,4-b]pyridin-4-yl)phenyl]methyl acetate], for which the concentration for half-maximal inhibition (IC50) is more than 10000 nM in assay [1] (setting [5]), 3990 nM in assay [2] and 4050 nM in assay [3].
As to `C[C@H]1CC[C@@H](Nc2n[nH]c3nccc(-c4ccc(CNC(=O)c5noc(C(C)(C)C)n5)c(F)c4)c23)CN1CC#N` [Example 143, 5-tert-butyl-N-{[4-(3-{[(3R,6S)-1-(cyanomethyl)-6-methylpiperidin-3-yl]amino}-1H-pyrazolo[3,4-b]pyridin-4-yl)-2-fluorophenyl]methyl}-1,2,4-oxadiazole-3-carboxamide], the IC50 was less than 10 nM in assay [1] (setting [4]), 7.08 nM in assay [1] (setting [5]), 2230 nM in assay [2] and 2930 nM in assay [3]. Moreover, the TEC/Btk in assay [2] was 315.
